In ChEMBL document CHEMBL2375313, “Synthesis, in vitro antitumor evaluation and DNA-binding study of novel tetrahydroquinolines and some derived tricyclic and tetracyclic ring systems” (Eur J Med Chem, 2013) one finds GI50, TGI and CC50 data, which are given here for 1 molecule.

Each structure is given as a SMILES string.

Usually GI50 stands for the concentration at which growth is held to half of that of the control. As usually defined, the TGI is the concentration at which net growth stops. A lower TGI goes with greater sensitivity of the cells.

What all share (type): functional
Test [1] can be described thus: Cytotoxicity against human colon cancer cells after 48 hrs by sulphorhodamine B assay. As to conditions: Cancer cell lines.
Test [2] is described as follows: Cytotoxicity against human ovarian cancer cells after 48 hrs by sulphorhodamine B assay. The settings on record: Cancer cell lines. A general note: The SRB assay estimates cell density from bound dye.
A short description of test [3]: Cytotoxicity against human CNS cancer cells after 48 hrs by sulphorhodamine B assay. The settings on record: Cancer cell lines.
Test [4] is described as follows: Cytotoxicity against human prostate cancer cells after 48 hrs by sulphorhodamine B assay. The settings on record: Cancer cell lines.
Test [5] is described as follows: Cytotoxicity against human melanoma cells after 48 hrs by sulphorhodamine B assay. As to conditions: Melanoma cell.
Test [6] can be described thus: Cytotoxicity against human breast cancer cells after 48 hrs by sulphorhodamine B assay. The settings on record: Cancer cell lines.
A short description of test [7]: Cytotoxicity against human non-small cell lung cancer cells after 48 hrs by sulphorhodamine B assay. The settings on record: Cancer cell lines.
Test [8] in a line: Cytotoxicity against human leukemia cells after 48 hrs by sulphorhodamine B assay. The settings on record: Leukemia cell.
A short description of test [9]: Cytotoxicity against human renal cancer cells after 48 hrs by sulphorhodamine B assay. As to conditions: Cancer cell lines.
Setting [10] is: read-out: LC50 (the source's name).

For `O=c1[nH]cc(F)c(=O)[nH]1` [FLUOROURACIL], the GI50 in [1] is 8.4 µM; in test [2] it was 61.4 µM; in test [4] it was 22.7 µM; in test [5] it was 70.6 µM; in [6], 76.4 µM; in test [7] it was above 100 µM. Moreover, halving of growth in [9] (GI50) required 45.6 µM. The concentration for total growth inhibition (TGI) in [1], in test [2], in [3], in [4], in [5] and in test [6] was above 100 µM throughout. Besides, the TGI in [7], in test [8] and in test [9] was above 100 µM throughout. The CC50 in test [1] (setting [10]), in [2] (setting [10]) and in [5] (setting [10]) was above 100 µM each time.
